Test results as given in patent publication US10501414B2, “Indole analogs as 5-oxo-ETE receptor antagonists and method of use thereof” (THE ROYAL INSTITUTION FOR THE ADVANCEMENT OF …, priority 2015, dated 2019).
Where “and” joins values, the source holds several entries; their conditions need not be identical. Identical values can stand only once. Entries after “also recorded” stand apart in the source; their conditions may differ. Like-named read-outs stand apart in the source and are kept apart here. One block for each molecule: values may come before it.

What was measured:
OXE receptor [1] = biological target: T1, OXE receptor (Homo sapiens, UniProt Q8TDS5); test: Calcium mobilization in human granulocytes (inhibition of 5-oxo-ETE-induced calcium mobilization); assay type: cell-based
T1 construct: Human granulocytes (≥95% neutrophils) are prepared from whole blood; endogenous in cells; host or cells: human granulocytes (≥95% neutrophils) from whole blood
T1 sequence (Q8TDS5 whole entry): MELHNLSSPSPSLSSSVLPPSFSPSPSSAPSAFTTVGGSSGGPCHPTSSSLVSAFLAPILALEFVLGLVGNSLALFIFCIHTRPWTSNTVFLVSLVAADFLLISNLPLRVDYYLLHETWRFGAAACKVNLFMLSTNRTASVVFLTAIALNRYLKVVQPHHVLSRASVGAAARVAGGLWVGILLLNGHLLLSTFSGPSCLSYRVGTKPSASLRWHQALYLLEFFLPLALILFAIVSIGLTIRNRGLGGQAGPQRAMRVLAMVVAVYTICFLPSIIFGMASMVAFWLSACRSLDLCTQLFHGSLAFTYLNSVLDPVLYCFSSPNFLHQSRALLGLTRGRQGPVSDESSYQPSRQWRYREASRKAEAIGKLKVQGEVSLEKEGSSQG
Procedure: Evaluation of Antagonist Activity: Calcium Mobilization in Human Granulocytes
Human granulocytes (≥95% neutrophils) are prepared from whole blood using Dextran 500 to remove red blood cells, followed by centrifugation over Ficoll-Paque to remove mononuclear cells and hypotonic lysis of any remaining red blood cells. After centrifugation the granulocytes are suspended in Ca^++/Mg^++-free phosphate-buffered saline (PBS^−). Granulocytes (10^7 cells/ml) are incubated with the acetoxymethyl ester of indo-1 (1 μM) for 30 min, followed by washing twice with PBS^− and resuspension in the same medium to obtain a final cell concentration of 3.22×10^6 cells/ml. Five minutes prior to commencing data acquisition, Ca^++ and Mg^++ are added to give final concentrations of 1.8 and 1 mM, respectively. Calcium measurements are performed at 37° C. using a spectrofluorometer equipped with a temperature-controlled cuvette holder and a magnetic stirrer. The excitation and emission wavelengths are 331 nm and 410 nm, respectively. Following stabilization of the baseline, fluorescence is measured for 1 min, prior to the addition of either vehicle or various concentrations of a potential 5-oxo-ETE antagonist. Two min later, 5-oxo-ETE (10 nM) is added, followed 1 min later by digitonin (final concentration 0.1%). Data acquisition is terminated after a further 0.5 min. Fmax is determined from fluorescence measurements after the addition of digitonin, whereas Fmin is determined after determination of autofluorescence as described in the literature. A dissociation constant of 250 nM for the indo-1/Ca^++ complex is used to calculate [Ca^++]i. The % inhibition of 5-oxo-ETE-induced calcium mobilization by the antagonist is calculated as follows: Inhibition (%)=(1−(Caant/Ca^++veh))×100 where Caant is the increase in cytosolic calcium levels induced by 5-oxo-ETE (10 nM) following the addition of a potential antagonist, whereas Caveh is the response induced by 5-oxo-ETE following addition of vehicle alone.

[2] = Antagonist concentrations in blood (plasma) following oral administration; assay type: in vivo; conditions: cynomolgus monkeys
Procedure: Measurement of Antagonist Concentrations in Blood Following Oral Administration
Antagonists dissolved in ethanol (5 to 75 mg/ml) and added to 20 mM NaHCO3 pH 8.0. The resulting suspension (7 to 13 ml containing 10% ethanol) was administered by gavage (between 1 and 30 mg/kg) to cynomolgous monkeys (3 to 4 kg body weight). After different times (between 0.5 and 24 h as well as just prior to administration of antagonist) blood samples (1-2 ml) were taken and centrifuged to obtain plasma, which was frozen and transported to the laboratory as soon as the experiment was complete. Upon arrival at the laboratory, the plasma samples were thawed and the internal standards (1.5 μg), along with 2 volumes of MeOH, were added, the mixture vortexed, and then stored at −80° C. until analysis. The internal standards were structural analogs containing different numbers of methylene groups. Prior to analysis the plasma samples were warmed to room temperature, the above plasma samples containing MeOH were centrifuged and water was added to the supernatant to give a final concentration of 30%. The samples were then applied to a C18 SepPak cartridge (Waters Associates) that had previously been washed with MeOH followed by water (Powell, W. S., Prostaglandins, 1980. 20: p. 947-957). The extracts were analyzed by reversed-phase HPLC combined with automated precolumn extraction (Powell, W. S., Anal. Biochem., 1987. 164: p. 117-131). The stationary phase for the separation was a Novapak C18 column (4 μm particle size; 3.9×150 mm). The amounts of antagonists were determined on the basis of UV absorbance by comparing the peak area for the antagonist in question with that for the corresponding internal standard and correcting for any difference in extinction coefficient.
To examine the PK profiles of compounds V197 and V230 these compounds were administered to cynomolgus monkeys by oral gavage at a dose of 30 mg/kg. Plasma levels were measured following solid-phase extraction by reversed-phase high performance liquid chromatography (HPLC) after 0.5, 1, 2, 4, 8, 18, and 24 h using appropriate internal standards.

[3] = test system: 5-oxo-ETE-induced dermal eosinophil infiltration; test: Inhibition of 5-oxo-ETE-induced dermal eosinophil infiltration; assay type: in vivo; conditions: Rhesus monkeys, biopsy at 24 h
Procedure: Inhibition of 5-Oxo-ETE-Induced Dermal Eosinophil Infiltration
Rhesus monkeys (n=6) were injected intradermally with 5-oxo-ETE (5 μg) or vehicle. Compound 50 (5 or 10 mg/kg) or vehicle were administered by oral gavage both 1 h before and 7 h after injection of 5-oxo-ETE.
Skin biopsies were taken 24 h after administration of 5-oxo-ETE and sections from paraffin-embedded tissue were stained for eosinophil major basic protein, followed by counting of eosinophils.

[4] = Metabolism of OXE antagonists by monkey liver microsomes; assay type: in vitro ADME, cynomolgous monkey
Procedure: Metabolism of OXE Antagonists by Monkey Microsomes
Microsomes (catalog number MKMC-PL) from cynomolgous monkey liver were obtained from Life Technologies. Antagonists (100 μM) were incubated for various times with liver microsomes (0.5 mg protein/ml) in PBS in the presence of NADPH (2 mM). After various times aliquots (0.1 ml) were removed and placed in a tube containing 0.36 ml ice-cold methanol. After addition of 0.74 ml of water along with 1 μg of an appropriate internal standard the samples were stored at −80° C. until analysis by reversed-phase HPLC.

OXE receptor [5] = biological target: T1, OXE receptor; conditions: previously described values for V230 and its enantiomers; read-out: IC50, previously disclosed/reported; cited from earlier work
[6] = inhibition of calcium mobilization induced by 5-oxo-ETE (10 nM) in human granulocytes, bracketed figure in cell = n, read-out: IC50
[7] = oral gavage 30 mg/kg, over 24 h
[8] = 5-oxo-ETE-induced calcium mobilization, read-out: potency (IC50) in the picomolar range
[9] = 5-oxo-ETE-induced calcium mobilization
[10] = oral gavage 30 mg/kg, over 24 h, 30 mg/kg

Compound: C[C@@H](CC(=O)O)CC(=O)c1c(CCCCCCc2ccccc2)n(C)c2ccc(Cl)cc12 (single isomer, unassigned) [Compound 61]
IC50 (OXE receptor [1]; [6]): 23 ± 2 nM
course of plasma levels / PK profile in words [2, 7]: higher than those of the S-enantiomer and dropped much more slowly

Compound: C[C@H](CC(=O)O)CC(=O)c1c(CCCCCCc2cccc(Cl)c2)n(C)c2ccc(Cl)cc12 [Compound 50, (S)-5-(5-chloro-2-(6-(3-chlorophenyl)hexyl)-1-methyl-1H-indol-3-yl)-3-methyl-5-oxopentanoic acid]
IC50 (OXE receptor [1]; [8]): ~0.008 nM
IC50 (OXE receptor [1]; [6]): 0.0081 ± 0.0013 nM
5-Oxo-ETE-induced eosinophil infiltration ([3]; 5 mg/kg oral gavage 1 h before and 7 h after 5-oxo-ETE, p<0.005): significantly inhibited
5-Oxo-ETE-induced eosinophil infiltration ([3]; 10 mg/kg oral gavage 1 h before and 7 h after 5-oxo-ETE, p<0.02): significantly inhibited

Compound: C[C@H](CC(=O)O)CC(=O)c1c(CCCCCCc2ccccc2)n(C)c2ccc(Cl)cc12 [Compound 46, (S)-5-(5-chloro-1-methyl-2-(6-phenylhexyl)-1H-indol-3-yl)-3-methyl-5-oxopentanoic acid]
IC50 (OXE receptor [1]; [6]): 0.1 nM
course of plasma levels / PK profile in words [2, 7]: fell much more slowly
plasma levels relative to V230 at later time points [2, 7]: at least 10 times higher
difference in unmetabolized:metabolized ratio versus V230 ([4]; 4 h, in favor of 46): 4 fold

Compound: CC(CC(=O)O)CC(=O)c1c(CCCCCCc2ccccc2)n(C)c2ccc(Cl)cc12 (racemic) [Compound 15, 5-(5-chloro-1-methyl-2-(6-phenylhexyl)-1H-indol-3-yl)-3-methyl-5-oxopentanoic acid]
IC50 (OXE receptor [1]; [6]): 0.18 nM
course of plasma levels / PK profile in words [2, 7]: declined much more slowly than the S-enantiomer

Compound: CC(CC(=O)O)CC(=O)c1c(/C=C/CCCCc2ccccc2)n(C)c2ccc(Cl)cc12 (stereo not shown) [Compound 85, (E)-5-(5-chloro-1-methyl-2-(6-phenylhex-1-en-1-yl)-1H-indol-3-yl)-3-methyl-5-oxopentanoic acid]
IC50 (OXE receptor [1]; [6]): 1.93 ± 0.6 nM

Compound: CC(CC(=O)O)CC(=O)c1c(CCCCCCc2cccc(Cl)c2)n(C)c2ccc(Cl)cc12 (racemic) [Compound 20, 5-(5-chloro-2-(6-(3-chlorophenyl)hexyl)-1-methyl-1H-indol-3-yl)-3-methyl-5-oxopentanoic acid]
IC50 (OXE receptor [1]; [8]): ~0.033 nM
IC50 (OXE receptor [1]; [6]): 0.033 ± 0.003 nM

Compound: C[C@@H](CC(=O)O)CC(=O)c1c(CCCCCCc2cccc(Cl)c2)n(C)c2ccc(Cl)cc12 (single isomer, unassigned) [Compound 65]
IC50 (OXE receptor [1]; [6]): 0.64 ± 0.1 nM

Compound: CC(CC(=O)O)CC(=O)c1c(CCCCCCc2ccc(F)cc2)n(C)c2ccc(Cl)cc12 (stereo not shown) [Compound 24, 5-(5-chloro-2-(6-(4-fluorophenyl)hexyl)-1-methyl-1H-indol-3-yl)-3-methyl-5-oxopentanoic acid]
IC50 (OXE receptor [1]; [6]): 0.8 ± 0.24 nM

Compound: C[C@@H](CC(=O)O)CC(=O)c1c(CCCCCCc2ccccc2Cl)n(C)c2ccc(Cl)cc12 (single isomer, unassigned) [Compound 62]
IC50 (OXE receptor [1]; [6]): 81 ± 34 nM

Compound: COc1ccccc1CCCCCCc1c(C(=O)CC(C)CC(=O)O)c2cc(Cl)ccc2n1C (stereo not shown) [Compound 19, 5-(5-chloro-2-(6-(2-methoxyphenyl)hexyl)-1-methyl-1H-indol-3-yl)-3-methyl-5-oxopentanoic acid]
IC50 (OXE receptor [1]; [6]): 0.18 ± 0.05 nM

Further lines, with some results ahead:

IC50 (OXE receptor [1]; [6]): 0.8 ± 0.3 nM
time to peak / maximal plasma levels ([2]; oral gavage 30 mg/kg (46M after administration of 46)): 8 to 12 h
Compound: C[C@H](CC(=O)O)CC(=O)c1c(C(O)CCCCCc2ccccc2)n(C)c2ccc(Cl)cc12 (stereo partly shown) [Compound 46M]
antagonist activity / potency in words (OXE receptor [1]; [9]): 5-oxo-ETE-induced calcium mobilization inhibitors

IC50 (OXE receptor [1]; [6]): 20 nM
Compound: CC(C)CCCCc1c(C(=O)CC(C)CC(=O)O)c2cc(Cl)ccc2n1C (stereo not shown) [Compound V197, reference compound]
course of plasma levels / PK profile in words [2, 10]: dropped quite rapidly after 1 h; also recorded: inferior to that of compound V230

extent of metabolism in plasma in words ([2]; oral gavage 30 mg/kg, after 8 h, compared with 46): much greater
extent of metabolism by microsomes in words ([4]; NADPH, up to 4 h, compared with 46): much greater
Compound: CCCCCCc1c(C(=O)C[C@H](C)CC(=O)O)c2cc(Cl)ccc2n1C [Compound V230, reference compound]
course of plasma levels / PK profile in words [2, 10]: dropped quite rapidly after 1 h; also recorded: rapid decline
IC50 (OXE receptor [5]): 26 ± 4 nM

IC50 (OXE receptor [1]; [6]): 0.58 ± 0.21 nM
Compound: COc1ccccc1CCCCCC(O)c1c(C(=O)C[C@H](C)CC(=O)O)c2cc(Cl)ccc2n1C (stereo partly shown) [Compound 49M]
antagonist activity / potency in words (OXE receptor [1]; [9]): antagonists and 5-oxo-ETE-induced calcium mobilization inhibitors

antagonist activity / potency in words (OXE receptor [1]; [9]): somewhat less potent
IC50 (OXE receptor [1]; [6]): 88 ± 26 nM
Compound: CCC(C)CCCc1c(C(=O)CC(C)CC(=O)O)c2cc(Cl)ccc2n1C (stereo not shown) [Compound V225, reference compound]

IC50 (OXE receptor [1]; [6]): 1.4 ± 0.4 nM
Compound: C[C@H](CC(=O)O)CC(=O)c1c(C(O)CCCCCc2ccc(F)cc2)n(C)c2ccc(Cl)cc12 (stereo partly shown) [Compound 54M]
antagonist activity / potency in words (OXE receptor [1]; [9]): antagonists and 5-oxo-ETE-induced calcium mobilization inhibitors
